Experimental data taken from paper PMC9697446 (International Journal of Molecular Sciences, 2022).
Read-outs that look alike come from different tables or passages of the source.

Assays:
[1] = test system: isolated rat liver mitochondria; test: Mitochondrial membrane potential and calcium-induced depolarization (safranine O); assay type: biochemical; conditions: for ΔΨm, CI (g/m) / ΔΨm, CII (s/r): depolarization after 10-min incubation with 30 µM compound, mean ± SD; for ΔΨm, CI (g/m): complex I substrates (glutamate, malate); for ΔΨm, CII (s/r): complex II substrate (succinate) in the presence of rotenone; for Effect on calcium-induced mitochondrial depolarization at 30 μM: 12.5 µM CaCl2
Procedure: The primary screening of new compounds to determine their effect on the mitochondrial membrane potential formed due to respiratory chain (RC) activity after additions of RC substrates was performed on isolated rat liver mitochondria. It can be used to estimate the probability of the potential toxicity of these compounds. Furthermore, the influence of the compounds on the calcium-dependent depolarization of isolated rat liver mitochondria in this assay made it possible to evaluate the effect on the mitochondrial permeability transition.
Rat liver mitochondria were isolated by conventional differential centrifugation from the livers of adult Wistar strain rats that fasted overnight, pH 7.6 [83, 84]. The mitochondrial protein concentration was determined using a biuret procedure with bovine serum albumin as the standard.
Safranine O (10 µM) was used as a membrane potential probe. Fluorescence intensity at 580 nm (excitation at 520 nm) was measured with a Wallac Victor 3 1420 Multilabel Counter (Perkin Elmer, Turku, Finland). The mitochondrial protein concentration was 0.2 mg/mL. The medium for measurements contained 75 mM sucrose, 225 mM mannitol, 10 mM K-HEPES (pH 7.4), 0.02 mM EGTA, and 1 mM KH2PO4. After a 5-min incubation, 5 mM glutamate/malate or 5 mM succinate in the presence of 0.5 µM rotenone were added to produce the mitochondrial potential. Then, the compounds (30 µM) or the same volume of the vehicle (DMSO) were injected into the mitochondrial suspension. After 15–20 min, 12.5 µM CaCl2 was added to each sample to induce the depolarization of mitochondria, and after 5 min, 0.5 µM CCCP was added for maximum depolarization of the mitochondria. The level of depolarization (ΔΨm) was calculated using the fluorescence value after 10-min incubation with 30 µM of compounds (or vehicle) normalized between the fluorescence measurements after substrate and CCCP addition, where fluorescence intensity at 580 nm was 100% after substrate addition and was 0% after CCCP addition.

[2] = Oxygen radical absorbance capacity assay (ORAC-FL); conditions: Trolox equivalent, Trolox = 1; means ± SEM (n = 3)
Source text: The method is based on the measurement of the fluorescence intensity characterizing the degree of destruction of the fluorescence probe under the action of peroxyl radicals.
The peroxyl radical scavenging capacity of the test compounds was characterized in terms of the Trolox equivalent (TE), which is equal to the ratio of the Trolox concentration to the concentration of a test compound when they show equal fluorescence intensities in the assay. The peroxyl radical scavenging capacity of Trolox was set as 1 [67, 68].
2,2´-Azobis(amidinopropane) dihydrochloride (AAPH), (±)-6-hydroxy-2,5,7,8-tetramethylchroman-2-carboxylic acid (Trolox), and fluorescein (FL) were purchased from Sigma-Aldrich. The reaction was carried out at 37 °C in 75 mM K,Na phosphate buffer (pH 7.4), and the final reaction mixture was 200 µL. The test compounds and the Trolox standard were dissolved in DMSO to 10 mM and further diluted in a 75 mM K,Na phosphate buffer (pH 7.4). The final concentrations were 0.1–1 µM for the test compounds and 1–6 µM for the Trolox. The blank was composed of 20 µL of a 75 mM K,Na phosphate buffer (pH 7.4) containing 20% (v/v) DMSO, 120 µL of FL and 60 µL of AAPH, and it was added in each assay. The antioxidant (20 µL) and FL (120 µL, final concentration: 70 nM) solutions were placed in a black 96-well microplate and were preincubated for 15 min at 37 °C. A solution of AAPH (60 µL, final concentration: 12 mM) was then added rapidly using a multichannel pipette. The microplate was immediately placed in the reader, and the fluorescence was recorded every minute for 100 min. The microplate was automatically shaken prior to each reading. The Trolox standard curve was also obtained in each assay. All reactions were carried out in triplicate, and at least three different assays were performed for each sample.
The antioxidant curves (fluorescence vs. time) were first normalized to the curve of the blank (without the antioxidant) corresponding to the same assay, and the area under the fluorescence decay curve (AUC) was calculated. The net AUC corresponding to a sample was calculated by subtracting the AUC corresponding to the blank. Regression equations were calculated by plotting the net AUC against the antioxidant concentration. The ORAC Tolox equivalent value (TE) was obtained by dividing the slope of the latter curve by the slope of the Trolox curve obtained in the same assay. The ability of Trolox to scavenge the peroxyl radical was equal to 1 [64, 65]. […] The data are expressed as means ± SEM.

EeAChE PAS = target: T1, EeAChE PAS (Electrophorus electricus, UniProt O42275); test: biochemical; assay type: binding; conditions: for inhibition at 3 µM: read-out: PI Displacement, 3 µM; for inhibition at 20 µM: read-out: PI Displacement, 20 µM
T1 construct: purchased Sigma-Aldrich type VI-S
Procedure: (§1) PIand donepezil were purchased from Sigma-Aldrich. […] As the source of the enzyme, electric eel (Elecrophorus electricus) AChE (EeAChE, type VI-S, lyophilized powder, Sigma-Aldrich, Saint Louis, MO, USA) was used. The applicability of this enzyme was shown earlier
To determine the percentage of displacement of PI from the EeAChE PAS, EeAChE (with a final concentration of 7 μM) was incubated with the test compound at a concentration of 3 and 20 μM in 1 mM Tris-HCl buffer pH 8.0, 25 °C for 15 min. Next, PIsolution (with a final concentration of 8 μM) was added, the samples were incubated for 15 min, and the fluorescence spectrum (530 nm (exc.) and 600 nm (emiss.)) was taken. Donepezil and decamethonium were used as reference compounds. The blank contained PI of the same concentration in 1 mM Tris-HCl buffer pH 8.0. The measurements were carried out in triplicate on a FLUOStar Optima microplate reader).
The percentage of displacement of PIfrom the peripheral anionic site of AChE was calculated using the following formula:% Displacement = 100 − (IFAChE+Propidium+inhibitor/IFAChE+Propidium) × 100,(1) where IFAChE+Propidium is the fluorescence intensity of the propidium associated with AChE in the absence of the test compound (taken as 100%) and IFAChE+Propidium+inhibitor is the fluorescence intensity of the propidium associated with AChE in the presence of the test compound.

EeAChE = target: T2, EeAChE (Electrophorus electricus, UniProt O42275); test: biochemical; conditions: means ± SEM (n = 3); read-out: EeAChE Inhibition, IC50
T2 construct: purchased Sigma-Aldrich type VI-S
Procedure: We selected AChE from electric eels (Electrophorus electricus) for consistency with our other reports and because of its purity, specific activity, and lower cost compared to human AChE [64].
(§2) AChE and BChE activities were measured via the Ellman method. The assay solution consisted of 0.1 M K/Na phosphate buffer pH 7.5, 25 °C with the addition of 0.33 mM DTNB, 0.02 unit/mL of AChE or BChE and 1 mM of substrate (ATCh or BTCh, respectively). The assays were carried out with a reagent blank containing all components (except AChE orBChE) in order to account for the non-enzymatic hydrolysis of the substrate. In addition, an enzyme blank was included that contained all components except substrate to account for non-substrate sulfhydryl groups.
(§3) The test compounds were dissolved in DMSO, and the incubation mixture contained 2% (v/v) of the solvent. Enzyme inhibition was first assessed at a single concentration of 20 µM for each compound after a 5 min incubation at 25 °C in three separate experiments. […] The test compounds were added to the assay solution and preincubated at 25 °C with the enzymes for 5 min, followed by the addition of substrate. A parallel control was made for the assay solution with no inhibitor. Measurements were performed with a FLUOStar Optima microplate reader (BMG Labtech, Ortenberg, Germany). Each experiment was performed in triplicate. The results were expressed as the mean ± SEM. The reaction rates in the presence and absence of the inhibitor were compared, and the percent of residual enzyme activity due to the presence of test compounds was calculated.
as §1

porcine liver CES = test: CES inhibition (4-nitrophenyl acetate hydrolysis); assay type: biochemical; conditions: ± SEM, n = 3;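 note: values are percent inhibition of CES activity not residual activity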
Procedure: (§4) The esterase profile was estimated using the human erythrocyteAChE, the equine serum BChE, and the porcine liver CES.
(§5) Human erythrocyte AChE, equine serum BChE, porcine liver CES, acetylthiocholine iodide (ATCh), butyrylthiocholine iodide (BTCh), 5,5′-dithio-bis-(2-nitrobenzoic acid) (DTNB), 4-nitrophenol acetate (4-NPA), and BNPP were purchased from Sigma-Aldrich (St. Louis, MO, USA).
The assay solution consisted of 0.1 M K/Na phosphate buffer pH 8.0, 25 °C, with the addition of 1 mM 4-nitrophenyl acetate and 0.02 unit/mL of CES. The assays were carried out with a blank containing all components, except CES.
as §3

human erythrocyte AChE = target: T3, human erythrocyte AChE (Homo sapiens, UniProt P22303); test: biochemical; conditions: IC50 ± SEM, n = 3
T3 construct: The esterase profile was estimated using the human erythrocyteAChE; purchased Sigma-Aldrich; host or cells: human erythrocytes
Procedure: as §4, §5, §2, §3

equine serum BChE = target: T4, equine serum BChE (Equus caballus, UniProt P81908); test: biochemical; conditions: n = 3; for IC50: IC50 ± SEM
T4 construct: the equine serum BChE, and the porcine liver CES; purchased Sigma-Aldrich; host or cells: equine serum
Procedure: as §4, §5, §2, §3

[3] = compound 3 µM, EeAChE 7 µM, PI 8 µM, means ± SEM (n = 3)
[4] = compound 20 µM, EeAChE 7 µM, PI 8 µM, means ± SEM (n = 3)

T4 sequence (P81908 whole entry): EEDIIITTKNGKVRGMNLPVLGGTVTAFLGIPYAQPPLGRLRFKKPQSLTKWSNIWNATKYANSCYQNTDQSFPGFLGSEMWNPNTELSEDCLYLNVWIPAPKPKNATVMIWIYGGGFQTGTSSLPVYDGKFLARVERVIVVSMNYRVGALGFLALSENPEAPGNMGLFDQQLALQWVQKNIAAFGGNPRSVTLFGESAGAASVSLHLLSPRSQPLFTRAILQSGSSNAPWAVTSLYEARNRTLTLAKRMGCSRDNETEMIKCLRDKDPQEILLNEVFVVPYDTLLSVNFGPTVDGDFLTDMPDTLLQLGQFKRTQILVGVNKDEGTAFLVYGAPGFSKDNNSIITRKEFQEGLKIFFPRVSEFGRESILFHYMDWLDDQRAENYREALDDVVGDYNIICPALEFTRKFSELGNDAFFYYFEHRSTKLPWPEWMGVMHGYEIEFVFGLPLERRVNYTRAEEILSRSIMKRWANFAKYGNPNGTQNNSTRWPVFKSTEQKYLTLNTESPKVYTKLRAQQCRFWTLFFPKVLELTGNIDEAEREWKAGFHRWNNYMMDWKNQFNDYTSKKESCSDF
T3 sequence (P22303 32-617 isoform P22303-2 limits assumed): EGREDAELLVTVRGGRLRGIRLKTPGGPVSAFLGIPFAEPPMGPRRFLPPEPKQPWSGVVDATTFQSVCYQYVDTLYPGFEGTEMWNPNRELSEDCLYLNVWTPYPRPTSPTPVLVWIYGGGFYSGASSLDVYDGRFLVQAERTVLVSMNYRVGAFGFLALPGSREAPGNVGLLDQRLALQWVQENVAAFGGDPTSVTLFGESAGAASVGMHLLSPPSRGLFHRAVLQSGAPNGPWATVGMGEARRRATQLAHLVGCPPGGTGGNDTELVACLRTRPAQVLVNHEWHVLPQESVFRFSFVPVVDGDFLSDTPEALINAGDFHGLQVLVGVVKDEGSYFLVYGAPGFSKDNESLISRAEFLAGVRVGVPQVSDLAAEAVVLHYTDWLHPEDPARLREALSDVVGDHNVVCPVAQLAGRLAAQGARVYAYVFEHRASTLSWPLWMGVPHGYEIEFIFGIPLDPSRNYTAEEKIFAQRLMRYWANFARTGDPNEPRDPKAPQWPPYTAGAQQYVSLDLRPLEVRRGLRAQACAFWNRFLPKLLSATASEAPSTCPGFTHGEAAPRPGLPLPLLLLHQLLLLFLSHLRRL
T1 sequence (O42275 24-633): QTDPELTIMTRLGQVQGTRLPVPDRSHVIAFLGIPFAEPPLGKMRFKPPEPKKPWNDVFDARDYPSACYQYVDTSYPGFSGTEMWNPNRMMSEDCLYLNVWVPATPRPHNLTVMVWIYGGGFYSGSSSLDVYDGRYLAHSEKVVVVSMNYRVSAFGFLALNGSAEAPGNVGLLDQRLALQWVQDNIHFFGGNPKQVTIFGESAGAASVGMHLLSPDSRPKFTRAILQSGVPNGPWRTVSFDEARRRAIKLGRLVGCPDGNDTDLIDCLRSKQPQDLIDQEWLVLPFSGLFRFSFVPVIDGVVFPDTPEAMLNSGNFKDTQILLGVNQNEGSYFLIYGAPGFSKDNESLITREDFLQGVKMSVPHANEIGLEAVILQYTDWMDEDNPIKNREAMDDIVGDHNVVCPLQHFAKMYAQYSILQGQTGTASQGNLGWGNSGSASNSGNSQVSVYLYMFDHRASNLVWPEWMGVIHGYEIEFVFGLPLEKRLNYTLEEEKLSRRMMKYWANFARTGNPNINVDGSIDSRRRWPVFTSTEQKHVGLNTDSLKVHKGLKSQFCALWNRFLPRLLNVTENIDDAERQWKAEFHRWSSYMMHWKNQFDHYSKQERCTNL
T2 sequence (O42275 24-633): as above

Row | SMILES | ΔΨm, CI (g/m) [1] [%] | ΔΨm, CII (s/r) [1] [%] | ORAC, TE Value [2] | inhibition at 3 µM (EeAChE PAS; [3]) [%] | inhibition at 20 µM (EeAChE PAS; [4]) [%] | IC50 (EeAChE) [nM] | CES inhibition at 20 µM (porcine liver CES) [%] | IC50 (human erythrocyte AChE) [µM] | IC50 (equine serum BChE) [µM] | Effect on calcium-induced mitochondrial depolarization at 30 μM [1] | inhibition at 3 µM (EeAChE PAS) [%] | inhibition at 20 µM (EeAChE PAS) [%] | inhibition at 20 µM (equine serum BChE; 20 µM, ± SEM) [%]
1 | CN(C)c1ccc2c(c1)Sc1cc(N(C)C)ccc1N2C(=O)CCn1c2c(c3ccccc31)CCCCC2 [Compound 4j] | 21 ± 9 | 66 ± 1 | 12.4 ± 0.2 | 10.3 ± 0.9 | 23.8 ± 1.1 | 2700 ± 90 | 11.3 ± 1.2 | 10.7 ± 0.67 | 9.98 ± 0.86 |  |  |  | 
2 | CN(C)c1ccc2c(c1)Sc1cc(N(C)C)ccc1N2C(=O)CCn1c2c(c3cc(F)ccc31)CCCC2 [Compound 4f] | 27 ± 1 | 47 ± 1 | 5.6 ± 0.4 | 14.4 ± 0.8 | 31.9 ± 1.4 | 1110 ± 120 | 6.6 ± 0.7 | 6.57 ± 0.57 | 18.4 ± 1.52 |  |  |  | 
3 | Cc1ccc2c(c1)c1c(n2CCC(=O)N2c3ccc(N(C)C)cc3Sc3cc(N(C)C)ccc32)CCCCC1 [Compound 4k] | 6 ± 3 | 62 ± 1 | 13.4 ± 1.3 | 12.1 ± 0.8 | 15.8 ± 0.7 | 4120 ± 370 | 5.3 ± 0.6 | 12.9 ± 0.53 | 22.2 ± 0.92 |  |  |  | 
4 | CC1CCc2c(c3cc(OC(F)(F)F)ccc3n2CCC(=O)N2c3ccc(N(C)C)cc3Sc3cc(N(C)C)ccc32)C1 (stereo not shown) [Compound 4i] | 6 ± 3 | 18 ± 2 | 5.1 ± 0.4 | 20.4 ± 1.8 | 32.5 ± 0.5 | 410 ± 30 | 3.5 ± 0.4 | 1.94 ± 0.09 | 6.07 ± 0.58 | completely suppress |  |  | 
5 | CN(C)c1ccc2c(c1)Sc1cc(N(C)C)ccc1N2C(=O)CCn1c2c(c3cc(OC(F)(F)F)ccc31)CCCC2 [Compound 4h] | 15 ± 2 | 25 ± 1 | 5.8 ± 0.5 | 19.1 ± 1.1 | 33.8 ± 0.4 | 890 ± 90 | 3.1 ± 0.5 | 6.89 ± 0.09 | 47.6 ± 4.59 | considerably decrease |  |  | 
6 | CN(C)c1ccc2c(c1)Sc1cc(N(C)C)ccc1N2C(=O)CCn1c2c(c3ccccc31)CCC2 [Compound 4a] | 8 ± 1 | 58 ± 1 | 6.8±0.4 | 12 ± 0.5 | 20.9 ± 0.8 | 2350 ± 230 | 19.4 ± 1.8 | 11.1 ± 0.69 | 42.13 ± 0.41 |  |  |  | 
7 | CN(C)c1ccc2nc3ccc(=[N+](C)C)cc-3sc2c1 [MB, Methylene blue, reference compound] | 14 ± 7 | 40 ± 9 | not detectable |  |  |  | 12.3 ± 1.5 |  | 11.1 ± 0.12 | completely suppress | 20.9 ± 1.9 | 40.8 ± 3.7 | 
8 | CN(C)c1ccc2c(c1)Sc1cc(N(C)C)ccc1N2C(=O)CCn1c2c(c3ccccc31)CCCCCC2 [Compound 4m] | 23 ± 9 | 57 ± 6 | 15.7 ± 1.5 | 17.3 ± 1.2 | 37.4 ± 0.8 | 570 ± 20 | 13.0 ± 1.1 | 2.98 ± 0.1 | 21.7 ± 0.51 |  |  |  | 
9 | COc1ccc2c(c1)c1c(n2CCC(=O)N2c3ccc(N(C)C)cc3Sc3cc(N(C)C)ccc32)CCC(C)C1 (stereo not shown) [Compound 4e] | 33 ± 1 | 50 ± 1 | 13.3 ± 1.3 | 14.8 ± 0.7 | 23 ± 1.3 | 1920 ± 140 | 15.0 ± 1.3 | 9.81 ± 0.18 |  |  |  |  | 22.9 ± 2
10 | CN(C)c1ccc2c(c1)Sc1cc(N(C)C)ccc1N2C(=O)CCn1c2c(c3ccccc31)CCCC2 [Compound 4b] | 20 ± 1 | 42 ± 2 | 8.6 ± 0.1 | 12.6 ± 0.7 | 27.9 ± 1.1 | 2420 ± 180 | 22.6 ± 2.1 | 12.3 ± 1.51 | 48.7 ± 2.09 |  |  |  | 
